# Measured values taken from US11648254B2 (Kumquat Biosciences Inc., priority 2021, dated 2023).
# Where two headings read alike, the source gives them in different places.
# Experiments:
# SOS1 = SOS1 (Homo sapiens (Human), UniProt Q07889); assay: Ras-SOS interaction assay (HTRF); format: biochemical
# [1] = tested on: MIA PaCa-2 cells (K-Ras G12C); assay: Ras-SOS cellular growth inhibition assay (CellTiter-Glo, 3D); format: cell-based
# Summary of the method: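 Growth read by CellTiter-Glo luminescence about 5 days after dosing with 3-fold dilutions (9 points), added one day post-seeding. Cells: MIA PaCa-2, 3D culture on ultra-low-attachment surface, medium DMEM/Ham's F12 plus 10% FCS and 2.5% horse serum; IC50 by four-parameter fit.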
# [2] = tested on: NCI-H1975 cells (EGFR T790M L858R); assay: EGFR-SOS cellular inhibition assay (CellTiter-Glo, 3D); format: cell-based
# [3] = K-RasG13D utilized, read-out: IC50 inhibition of SOS
# [4] = K-RasG13D, read-out: IC50 value against SOS1
# [5] = Homo sapiens, MIA PaCa-2, 120 h, MIA PaCa-2, 3D proliferation, about 5 days, read-out: Bio-Cell-Prolif-3D (MiaPaca2 IC50)
# [6] = Homo sapiens, MIA PaCa-2, MIA PaCa-2, read-out: IC50 in inhibiting MIA PaCa-2 cell growth
# [7] = Homo sapiens, 120 h, NCI-H1975, 3D proliferation, about 5 days, read-out: Bio-Cell-Prolif-3D (H1975 IC50)
# [8] = Homo sapiens, NCI-H1975, EGFR T790M L858R, read-out: IC50 in inhibiting growth of NCI-H1975 cell line
# Sequence of SOS1 (Q07889 564-1049): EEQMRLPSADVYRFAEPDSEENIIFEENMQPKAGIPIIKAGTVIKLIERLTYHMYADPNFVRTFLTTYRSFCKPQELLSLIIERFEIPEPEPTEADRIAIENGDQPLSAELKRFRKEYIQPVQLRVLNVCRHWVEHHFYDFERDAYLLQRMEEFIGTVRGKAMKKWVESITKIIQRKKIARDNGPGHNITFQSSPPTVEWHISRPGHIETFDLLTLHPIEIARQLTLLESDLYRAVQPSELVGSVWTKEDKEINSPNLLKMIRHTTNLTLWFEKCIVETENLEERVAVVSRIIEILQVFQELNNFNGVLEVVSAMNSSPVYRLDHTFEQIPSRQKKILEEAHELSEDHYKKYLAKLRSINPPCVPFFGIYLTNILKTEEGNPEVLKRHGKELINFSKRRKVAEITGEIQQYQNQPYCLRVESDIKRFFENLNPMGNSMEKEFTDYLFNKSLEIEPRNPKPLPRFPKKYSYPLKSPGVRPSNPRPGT
Structure (SMILES),IC50 (SOS1; [3]) [nM],IC50 (SOS1; [4]) [nM],"IC50 [1, 5] [nM]","IC50 [1, 6] [nM]","IC50 [2, 7] [nM]","IC50 [2, 8] [nM]","IC50 ([1]; MIA PaCa-2, 3D proliferation, about 5 days, read-out: Bio-Cell-Prolif-3D (MiaPaca2 IC50)) [nM]","IC50 ([1]; MIA PaCa-2, read-out: IC50 in inhibiting MIA PaCa-2 cell growth) [nM]","IC50 ([2]; NCI-H1975, 3D proliferation, about 5 days, read-out: Bio-Cell-Prolif-3D (H1975 IC50)) [nM]","IC50 ([2]; NCI-H1975, EGFR T790M L858R, read-out: IC50 in inhibiting growth of NCI-H1975 cell line) [nM]"
"CNc1nc2nc(C)nc(N[C@H](C)c3cccc(C(F)F)c3F)c2cc1C1CCS(=O)(=O)CC1 [Compound 136, (R)-4-(4-((1-(3-(difluoromethyl)-2-fluorophenyl)ethyl)amino)-2-methyl-7-(methylamino)pyrido[2,3-d]pyrimidin-6-yl)tetrahydro-2H-thiopyran 1,1-dioxide]",< 100,< 50,≤ 1000,< 500,≤ 1000,< 500,–,–,–,–
"Cc1nc(N[C@H](C)c2cccc(C(F)F)c2F)c2cc(C3CCS(=O)(=O)CC3)c(OCCO)nc2n1 [Compound 137, (R)-4-(4-((1-(3-(difluoromethyl)-2-fluorophenyl)ethyl)amino)-7-(2-hydroxyethoxy)-2-methylpyrido[2,3-d]pyrimidin-6-yl)tetrahydro-2H-thiopyran 1,1-dioxide]",< 100,< 50,≤ 1000,< 500,≤ 1000,–,–,–,–,–
"Cc1nc(N[C@H](C)c2cccc(C(F)F)c2F)c2cc(S(=O)(=O)C3CCN(C)CC3)c(C)nc2n1 [Compound 138, (R)-N-(1-(3-(difluoromethyl)-2-fluorophenyl)ethyl)-2,7-dimethyl-6-((1-methylpiperidin-4-yl)sulfonyl)pyrido[2,3-d]pyrimidin-4-amine]",–,< 50,≤ 1000,< 500,≤ 1000,< 500,–,–,–,–
"CNc1nc2nc(C)nc(N[C@H](C)c3cccc(C(F)F)c3F)c2cc1S(=O)(=O)C1CCN(C)CC1 [Compound 139, (R)-N4-(1-(3-(difluoromethyl)-2-fluorophenyl)ethyl)-N7,2-dimethyl-6-((1-methylpiperidin-4-yl)sulfonyl)pyrido[2,3-d]pyrimidine-4,7-diamine]",< 100,< 50,≤ 1000,< 500,≤ 1000,< 500,–,–,–,–
"COc1nc2nc(C)nc(N[C@H](C)c3cccc(C(F)(F)F)c3C)c2cc1N1CCS(=O)(=O)CC1 [Compound 142, (R)-4-(7-methoxy-2-methyl-4-((1-(2-methyl-3-(trifluoromethyl)phenyl)ethyl)amino)pyrido[2,3-d]pyrimidin-6-yl)thiomorpholine 1,1-dioxide]",< 100,< 50,≤ 1000,< 500,≤ 1000,< 500,–,–,–,–
"Cc1nc(N[C@H](C)c2cccc(C(F)F)c2F)c2cc(C3CCS(=O)(=O)CC3)c(N(C)C)nc2n1 [Compound 143, (R)-4-(4-((1-(3-(difluoromethyl)-2-fluorophenyl)ethyl)amino)-7-(dimethylamino)-2-methylpyrido[2,3-d]pyrimidin-6-yl)tetrahydro-2H-thiopyran 1,1-dioxide]",< 100,< 50,≤ 1000,< 500,≤ 1000,< 500,–,–,–,–
"Cc1nc(N[C@H](C)c2cccc(C(F)F)c2F)c2cc(C3CCS(=O)(=O)CC3)c(OCCN(C)C)nc2n1 [Compound 145, (R)-4-(4-((1-(3-(difluoromethyl)-2-fluorophenyl)-ethyl)amino)-7-(2-(dimethylamino)ethoxy)-2-methylpyrido[2,3-d]pyrimidin-6-yl)tetrahydro-2H-thiopyran 1,1-dioxide]",< 100,< 50,≤ 1000,< 500,≤ 1000,< 500,–,–,–,–
"COc1nc2nc(C)nc(N[C@H](C)c3cccc(CC(F)F)c3F)c2cc1C1CCS(=O)(=O)CC1 [Compound 147, (R)-4-(4-((1-(3-(2,2-difluoroethyl)-2-fluorophenyl)ethyl)amino)-7-methoxy-2-methylpyrido[2,3-d]pyrimidin-6-yl)tetrahydro-2H-thiopyran 1,1-dioxide]",< 100,< 50,≤ 1000,–,≤ 1000,< 500,–,–,–,–
"COc1nc2nc(C)nc(N[C@H](C)c3cccc(CC(F)F)c3F)c2cc1N1CCN(C)CC1 [Compound 149, (R)-N-(1-(3-(2,2-difluoroethyl)-2-fluorophenyl)ethyl)-7-methoxy-2-methyl-6-(4-methylpiperazin-1-yl)pyrido[2,3-d] pyrimidin-4-amine]",< 100,< 50,≤ 1000,< 500,≤ 1000,< 500,–,–,–,–
"COCCOc1nc2nc(C)nc(N[C@H](C)c3cccc(C(F)F)c3F)c2cc1C1(C#N)CC1 [Compound 151, (R)-1-(4-((1-(3-(difluoromethyl)-2-fluorophenyl)ethyl)amino)-7-(2-methoxyethoxy)-2-methylpyrido[2,3-d]pyrimidin-6-yl)cyclopropane-1-carbonitrile]",–,< 50,≤ 1000,–,≤ 1000,< 500,–,–,–,–
"COc1nc2ncnc(N[C@H](C)c3cccc(CC(F)F)c3F)c2cc1C1CCS(=O)(=O)CC1 [Compound 152, (R)-4-(4-((1-(3-(2,2-difluoroethyl)-2-fluorophenyl)ethyl)amino)-7-methoxypyrido[2,3-d]pyrimidin-6-yl)tetrahydro-2H-thiopyran 1,1-dioxide]",< 100,< 50,≤ 1000,–,≤ 1000,–,–,–,–,–
"COc1nc2nc(C)nc(N[C@H](C)c3cccc(C(F)F)c3F)c2cc1C1CCS(=N)(=O)CC1 (stereo partly drawn) [Compound 153, 4-(4-(((R)-1-(3-(difluoromethyl)-2-fluorophenyl)ethyl)amino)-7-methoxy-2-methylpyrido[2,3-d]pyrimidin-6-yl)-1-iminohexahydro-1λ6-thiopyran 1-oxide]",< 100,< 50,≤ 1000,< 500,≤ 1000,< 500,–,–,–,–
"COc1nc2nc(C)nc(N[C@H](C)c3cccc(C(F)F)c3F)c2cc1C1CCS(=N)(=O)CC1 (stereo partly drawn) [Compound 154, (R)-4-(4-((1-(3-(difluoromethyl)-2-fluorophenyl)ethyl)amino)-7-methoxy-2-methylpyrido[2,3-d]pyrimidin-6-yl)-1-iminohexahydro-1λ6-thiopyran 1-oxide]",< 100,< 50,–,–,–,–,≤ 1000,< 500,≤ 1000,< 500
"COCCOc1nc2nc(C)nc(N[C@H](C)c3cccc(C(F)F)c3F)c2cc1C1CCS(=O)(=O)CC1 [Compound 157, (R)-4-(4-((1-(3-(difluoromethyl)-2-fluorophenyl)ethyl)amino)-7-(2-methoxyethoxy)-2-methylpyrido[2,3-d]pyrimidin-6-yl)tetrahydro-2H-thiopyran 1,1-dioxide]",< 100,< 50,≤ 1000,< 500,≤ 1000,< 500,–,–,–,–
"COCCOc1nc2nc(C)nc(N[C@H](C)c3cccc(C(F)F)c3OCCOC)c2cc1C1CCS(=O)(=O)CC1 [Compound 158, (R)-4-(4-((1-(3-(difluoromethyl)-2-(2-methoxyethoxy)phenyl)ethyl)amino)-7-(2-methoxyethoxy)-2-methylpyrido[2,3-d]pyrimidin-6-yl)tetrahydro-2H-thiopyran 1,1-dioxide]",< 100,–,≤ 1000,–,1000 to 10000,–,–,–,–,–
"COc1nc2nc(C)nc(N[C@H](C)c3cccc(C(F)(F)C4CCN(C(C)C)CC4)c3F)c2cc1C1CCN(C(C)C)CC1 [Compound 161, (R)-N-(1-(3-(difluoro(1-isopropylpiperidin-4-yl)methyl)-2-fluorophenyl)ethyl)-6-(1-isopropylpiperidin-4-yl)-7-methoxy-2-methylpyrido[2,3-d]pyrimidin-4-amine]",< 100,< 50,≤ 1000,< 500,≤ 1000,< 500,–,–,–,–
"COc1nc2nc(C)nc(N[C@H](C)c3cccc(C(F)(F)C4CCN(C(C)C)CC4)c3F)c2cc1N1CCN(C(C)C)CC1 [Compound 163, (R)-N-(1-(3-(difluoro(1-isopropylpiperidin-4-yl)methyl)-2-fluorophenyl)ethyl)-6-(4-isopropylpiperazin-1-yl)-7-methoxy-2-methylpyrido[2,3-d]pyrimidin-4-amine]",< 100,< 50,≤ 1000,< 500,≤ 1000,< 500,–,–,–,–
"COc1nc2nc(C)nc(N[C@H](C)c3cccc(C(F)(F)F)c3F)c2cc1C1CCN(C(C)=O)CC1 [Compound 165, (R)-1-(4-(4-((1-(2-fluoro-3-(trifluoromethyl)phenyl)ethyl)amino)-7-methoxy-2-methylpyrido[2,3-d]pyrimidin-6-yl)piperidin-1-yl)ethan-1-one]",< 100,< 50,≤ 1000,–,≤ 1000,< 500,–,–,–,–
"COc1nc2ncnc(N[C@H](C)c3cccc(C(F)(F)F)c3F)c2cc1N1CCN(C2CCOCC2)CC1 [Compound 166, (R)-N-(1-(2-fluoro-3-(trifluoromethyl)phenyl)ethyl)-7-methoxy-6-(4-(tetrahydro-2H-pyran-4-yl)piperazin-1-yl)pyrido[2,3-d]pyrimidin-4-amine]",< 100,< 50,≤ 1000,< 500,≤ 1000,< 500,–,–,–,–
